Columns and labels:
[1] = Photo-physical properties in aqueous HEPES buffer solution; assay type: physicochemical; conditions: aqueous HEPES buffer 20 mM, pH 7.4
Description: Photo-physical properties of I-1-I-5 was measured in aqueous HEPES [4-(2-hydroxyethyl)piperazine-1-ethanesulfonic acid] buffer solution (20 mM, pH 7.4); NAO bromide was used as reference compound. Similar to NAO, derivatives I-1-I-5 have absorption maxima at 494-498 nm, and emission maxima at 528-529 nm (Table 1). […] Moreover, the trimethylsilylpropyl substituent in position 10 improved PLQY up to 60.7% (I-5). […] The introduction of longer alkyl chains such as nonyl and dodecyl led to PLQY decrease.

[2] = Titration with cardiolipin, linear regression curve; assay type: binding
Description: (§1) Liposomes preparation. Vesicles were prepared by classic thin film method. […] Obtained large multilamellar liposomes were sonicated in a bath-type sonicator at room temperature for 30 min following by extrusion through a 100 nm polycarbonate filter for 21 times. The quality of the resulting small unilamellar vesicles was monitored by dynamic light scattering (DLS) technique. These stock solutions were diluted 5-fold to acquire 2nd stock solutions that were used in the fluorometric experiments.

[3] = Fluorescence intensity on interaction with CL/DOPC liposomes; assay type: binding; conditions: for fluorescence intensity after interaction with CL/DOPC liposomes: CL/DOPC liposomes (3:1), end value of the drop; for fluorescence intensity before interaction with CL/DOPC liposomes: start value of the drop
Description: as §1

[4] = Fluorescence intensity in the presence of DOPC liposomes without cardiolipin (selectivity); assay type: binding
Description: (§2) Besides, NAO fluorescence intensity loss during interaction of DOPC was detected at 5.6% level.
as §1

[5] = Stability of fluorescence during experiments; assay type: physicochemical; conditions: in 30 minutes
Description: as §2

[6] = decrease of green fluorescence in the presence of CL; cited from earlier work

Row | SMILES | Φ (PLQY, photoluminescence quantum yield) [1] | λabs [1] | λem [1] | linear slope of the titration curve [2] | fluorescence intensity after interaction with CL/DOPC liposomes [3] | fluorescence intensity before interaction with CL/DOPC liposomes [3] | fluorescence intensity drop in the presence of DOPC liposomes [4] | fluorescence intensity drop during experiments [5] | CL content that can be quantitatively analyzed [6]
1 | C[n+]1c2cc(N3CCC3)ccc2cc2ccc(N3CCC3)cc21.[I-] [Compound I-1, 3,6-di(azetidin-1-yl)-10-methylacridin-10-ium iodide] | 59.9% | 497 nm | 529 nm |  |  |  |  |  | 
2 | [2H]C([2H])([2H])[n+]1c2cc(N3CCC3)ccc2cc2ccc(N3CCC3)cc21.[I-] [Compound I-2, 3,6-di(azetidin-1-yl)-10-(methyl-d3)acridin-10-ium iodide] | 61.5% | 497 nm | 529 nm |  |  |  |  |  | 
3 | CCCCCCCCC[n+]1c2cc(N3CCC3)ccc2cc2ccc(N3CCC3)cc21.[I-] [Compound I-3, 3,6-di(azetidin-1-yl)-10-nonylacridin-10-ium iodide] | 47.9% | 498 nm | 529 nm |  |  |  |  |  | 
4 | CCCCCCCCCCCC[n+]1c2cc(N3CCC3)ccc2cc2ccc(N3CCC3)cc21.[I-] [Compound I-4, 3,6-di(azetidin-1-yl)-10-dodecylacridin-10-ium iodide] | 16.1% | 494 nm | 528 nm |  |  |  |  |  | 
5 | C[Si](C)(C)CCC[n+]1c2cc(N3CCC3)ccc2cc2ccc(N3CCC3)cc21.[I-] [Compound I-5, 3,6-di(azetidin-1-yl)-10-(3-(trimethylsilyl)propyl)acridin-10-ium iodide] | 60.7% | 497 nm | 529 nm | −6259±250 | 6600 a.u. | 65800 a.u. | 7.7% | remaining the same | 
6 | CCCCCCCCC[n+]1c2cc(N(C)C)ccc2cc2ccc(N(C)C)cc21 [NAO, 10-N-nonyl acridine orange, reference compound] | 15.5% | 498 nm | 528 nm | −1222±49 | 1260 a.u. | 13300 a.u. | 5.6% | 15.5% | 0.2 to 10 µM

Source: patent publication US12630719B2, “Fluorescent acridinium salts, synthesis thereof and use for detection of cardiolipin” (LATVIAN INSTITUTE OF ORGANIC SYNTHESIS, priority 2019, dated 2026)
